# Experimental data reported in a melting point compilation (Tetko et al.; mined from patent text by program, amines drawn as free bases though some values may be those of a salt).
row,SMILES,melting point
1,OCC1OC(n2c(Cl)nc3c(Cl)cc(Cl)cc32)C(O)C1O (stereo not drawn),162 °C
2,"Nc1cccc(CC2COc3ccc(OCc4ccc5ccc(Cl)cc5n4)cc3C2)c1 (single isomer, unassigned; (+))",128 to 130 °C
3,O=c1[nH]c(=O)n(CCCCN2CC=C(c3ccccc3)CC2)c2ccccc12,170 to 174 °C
4,CCc1nc2c(N)nc3ccccc3c2n1CCCC#Cc1ccccn1,188 to 192 °C
5,O=C(Nc1cc(S(=O)(=O)NC(CO)CO)sc1Cl)c1cnn2c(C(F)F)cc(-c3ccc(C(F)(F)F)cc3)nc12,241 °C
6,N#Cc1ccc2c(c1)COC2c1ccc(F)cc1 (stereo not drawn),96 to 98 °C
7,COc1cc(I)cc(OC)c1SC,103 to 104 °C
8,COc1ccc(-c2cc3cc(OC)cc(CC#N)c3o2)cc1,149 to 150 °C
9,COc1cc2c(cc1OC)[C@@H](c1ccc([N+](=O)[O-])cc1)NN(C1=NCCS1)[C@@H](C)C2,206 to 212 °C
10,CCCOC(=O)c1cc(-n2c(OC)nc(C(F)(F)F)c(F)c2=O)c(F)cc1Cl,76 to 78 °C
11,Fc1cc(Cl)c(CCl)cc1-c1ncnc(C(F)F)c1Cl,132 to 133 °C
12,Cc1nc2nc(-c3ccc(Cl)cc3)nn2c(=S)n1C,> 300 °C
13,O=C1C2=C(CCCC2)C(=O)N1CCCCCCN1C(=O)C2=C(CCCC2)C1=O,123 to 124 °C
14,N#Cc1cc(C(=O)NNC(=O)c2occc2-c2cccs2)ccc1O,258 to 259 °C
15,Cc1ccc(C)n1CCNC(=O)Nc1ccc(Cl)cc1,175 to 177 °C
16,I[Si](c1ccccc1)(c1ccccc1)c1ccccc1,221 to 225 °C
17,COc1ccc(Cc2cc3c(cc2OC)OCO3)cc1,56 to 57 °C
18,O[C@@H]1C(Cl)=CCC[C@@H]1O,111 to 112 °C
19,COc1ccc(C(CBr)(OC)OC)cc1,52 to 53 °C

row,SMILES,melting point
1,CC(=O)c1ccc2c(c1)C(C)(C)C(O)CC2(C)C (stereo not drawn),121 to 124 °C
2,CCOC(=O)c1cnc2c(N)c(Cl)c(F)cc2c1O,268 to 270 °C
3,ClCCn1cnc2c(NC3CCCCC3)nc(Cl)nc21,150 to 152 °C
4,COC(=O)c1cccc(-c2cn(C)cc(-c3ccc(C)cc3)c2=O)c1,85 to 88 °C
5,Clc1ccc(Nc2cncc(-n3cccn3)n2)cc1,155 to 157 °C
6,CC(=O)c1cc2c(c(C)c1O)OC(C)(C)CC2C (stereo not drawn),96 to 97 °C
7,COc1ccc(C(=O)Nc2ccccc2)cc1NC(=S)Nc1cccnc1,178 to 179 °C
8,CCC1=NNC(C)=C(C(=O)OC(C)(C)C)C1c1cccc([N+](=O)[O-])c1 (stereo not drawn),122 °C
9,CCc1ccc(C#Cc2ccc(C=O)cc2)cc1,117 °C
10,NN=c1cc(-c2c[nH]nc2-c2cccc(Cl)c2)cc[nH]1,163 to 164 °C
11,CC(C(=O)O)c1ccc(C(=O)c2ccc(Cl)s2)cc1 (stereo not drawn),137 °C
12,C1=C(c2ccccc2)CCN(CCCCc2cnc3ccccc3c2)C1,92.8 to 93.9 °C
13,CCCc1c(OCCCOc2ccc3c(c2CCC)OC(C)(CCC(=O)N(C)CC(=O)OCC)CC3=O)ccc(C(C)=O)c1O (stereo not drawn),101 to 102 °C
14,CCOC(=O)c1c(CCCCn2cncn2)nc2sc3c(c2c1-c1ccc(OC)c(OC)c1)CCN(C(=O)c1ccc(Cl)cc1)C3,165 to 166 °C
15,CS(=O)CCCn1cnc(-c2ccc(F)cc2)c1-c1ccncc1 (racemic),122 to 123 °C
16,CCCSc1ncc(CC(N=C(c2ccccc2)c2ccccc2)C(=O)OCC)n1Cc1ccccc1Cl (stereo not drawn),178 to 181 °C
17,CCC(=O)NCC[C@@H]1CCc2cc(Br)c(O)cc21,146 to 148 °C
18,CC(C)(C)c1nn(-c2c(Cl)cc(C(F)(F)F)cc2Cl)c(Cl)c1-c1nc(C#N)c(C#N)[nH]1,118 to 120 °C
19,CCCNC(=O)n1nc(Oc2ncc(C(F)(F)F)cc2Cl)c(Cl)c1C,54 to 56 °C

row,SMILES,melting point
1,O=[N+]([O-])c1ccc(Oc2ccc3c(c2)OCCC3Cl)cc1 (stereo not drawn),67 to 68 °C
2,CCOC(=O)c1cnc2c(OC)cccc2c1Nc1cscc1OC,176 to 178 °C
3,CCc1cccc(C)c1CNc1nc(Br)cc(N)c1[N+](=O)[O-],126 to 128 °C
4,CCOC(=O)c1cn(CCF)c2c(F)c(C(C)=O)c(F)cc2c1=O,155 to 156 °C
5,CCc1c(-c2ccc(OC)cc2)cn2ccc(OC)cc12,101 to 103 °C
6,COc1cc(Nc2c(C#N)cnc3cc(Br)ccc23)c(Cl)cc1Cl,192 to 193 °C
7,Cc1cccnc1-n1c(C)nc2ccccc2c1=O,135 to 137 °C
8,CCCCN1CCCC1Cc1cccc(NC(N)=O)c1 (stereo not drawn),80 to 83 °C
9,Ic1ccc(SSc2ccc(I)cc2)cc1,122 to 123 °C
10,COC(=O)C1=C(NC(=O)Nc2cc(C(=O)OC(C)C)c(Cl)cc2F)CCS1,161 to 163 °C
11,CCCCOc1c(CNC(=O)OC(C)(C)C)n(CC(C)(C)C)c(=O)c2ccc(/C=C/C(=O)O)cc12,138 to 139 °C
12,COc1ccc(-c2cc(=O)c3c(O)cc(O)c(-c4cc(-c5cc(=O)c6c(O)cc(OC)cc6o5)ccc4OC)c3o2)cc1,295 to 298 °C
13,COc1ccc(OC)c(Nc2ncc(C(=O)O)c(=O)[nH]2)c1,260 to 262 °C
14,Cc1ccccc1-c1cnc2c(C(F)(F)F)cccc2c1-c1cccc(NC(=O)Nc2ccccc2F)c1,218 to 220 °C
15,CN(C)C(=O)c1cn(C)c2nc3cc(F)c(F)cc3cc2c1=O,324 °C
16,Cc1[nH]cc2c(=O)n(-c3ccc(Cl)cc3)nc-2c1-c1cccc(NCc2cccnc2)c1,284 to 287 °C
17,CCOC(=O)C(OCc1ccc(-c2ccc(Cl)cc2)cc1)c1ccccc1 (stereo not drawn),50 to 51 °C
18,COC(=O)C1CCC2C3CCC4CC=CCC4(C)C3C(NCCC(C)C)CC12C (stereo not drawn),150 to 152 °C
19,O=Cc1ccc(/C=C/c2ccncc2)cc1,116 to 117 °C

# Continued, values first:
row,melting point,SMILES
1,118 °C,COc1ccc2nc(C(=O)NCC(=O)O)c(OCc3ccccc3)cc2c1
2,93 °C,O=S(=O)(F)c1ccccc1S(=O)(=O)N1CCC1
3,168 to 169 °C,Cc1cccc2c1C1=C(CC2)NC(=O)CC1
4,115 to 118 °C,CC[C@@H](C)[C@H]1c2ccccc2-c2ccccc2N1S(=O)(=O)c1ccc(O)cc1 (relative stereo)
5,83 to 85 °C,O=C(CCN1CCN(c2cccc3[nH]ccc23)CC1)c1csc2ccccc12
6,169 to 171 °C,CN(C(=O)C(C)(C)N1C(=O)c2ccccc2C1=O)C(c1ccc(F)cc1)c1ccc(F)cc1
7,130 °C,CCCCc1oc2ccccc2c1C(=O)c1ccc(NS(=O)(=O)c2cccnc2)cc1
8,144 to 146 °C,COc1nc(C)cnc1N(C(=O)OCC(C)C)S(=O)(=O)c1cccnc1-c1ccc(O)cc1
9,217 to 218 °C,Nc1nc2nc(SCc3ccccc3)nc(Cl)c2s1
10,220 to 222 °C,CC1(N2Cc3cc(CNC(=O)c4ccc(Cl)c(Cl)c4)ccc3C2=O)CCC(=O)NC1=O (stereo not drawn)
11,205 to 210 °C,O=C(O)CCCn1ccc(=O)c(OCc2ccccc2)c1C(O)c1ccccc1 (stereo not drawn)
12,242 to 244 °C,CCOC(=O)C1C=Nc2c(ccc3cccnc23)C1=O (stereo not drawn)
13,51 to 52 °C,C[Si](C)(CCCSCCCNC(=O)n1cc(F)c(=O)[nH]c1=O)c1ccccc1
14,93.5 to 94.5 °C,O=C1c2cc(Oc3ccc(Cl)cc3)ccc2CCN1Cc1cccnc1
15,114 to 117 °C,O=C(Cn1ccnc1)c1cccc2ccccc12
16,165 to 170 °C,Clc1nnnc(-c2cccc3ccccc23)c1Cl
17,230 to 232 °C,CCn1cc(C(=O)O)c(=O)c2ccc(-n3cccc3)nc21
18,59.4 °C,CCOc1ccccc1C=[N+]([O-])C(C)C
19,198 to 200 °C,C[C@]1(COc2ccc(N3CCS(=O)CC3)cc2)Cn2cc([N+](=O)[O-])nc2O1
20,180 °C,N#Cc1cc([N+](=O)[O-])ccc1Oc1ccc(C(=O)c2ccccc2)cc1
21,111 to 112 °C,COc1ccc(N2CCN(Cc3cn4cc(Cl)ccc4n3)CC2)cc1

row,melting point,SMILES
1,213 to 216 °C,CC(C)(C)OC(=O)n1nc(-c2cc3ccc(OCCCN4CCCC(O)C4)cc3n2C(=O)OC(C)(C)C)c2sc(-c3ccccc3)cc21 (stereo not drawn)
2,160 to 161 °C,CN1CCN(C(=O)Nc2ccccc2NC(=O)c2cc(C(C)(C)C)c(O)c(C(C)(C)C)c2)CC1
3,375 °C,O=C(O)c1cccc2c(=O)c3cc([N+](=O)[O-])ccc3[nH]c12
4,107 to 109 °C,CCOC(=O)C(C(=O)CBr)C1Cc2ccccc2C(c2ccccc2)N1 (stereo not drawn)
5,121 to 125 °C,O=C(OCCOCn1cnc2c(Cl)nc(Cl)nc21)c1ccccc1
6,115 to 118 °C,CCCSC(=S)N1C(CO)Cc2c([nH]c3ccccc23)C1C (stereo not drawn)
7,179 to 182 °C,CCCCC(=O)Nc1ccc(C(F)(F)F)c(-n2nc(CCCC)n(Cc3ccc(-c4ccccc4S(=O)(=O)NC(=O)OC(C)(C)C)cc3F)c2=O)c1
8,129 to 130 °C,COc1ccc2c(C)c(CCN3CCN(c4ccccc4OC)CC3)c(=O)oc2c1
9,173 to 174 °C,Cc1ccccc1[C@@H]1CN(C(=O)C2CCN(C(=O)CO)CC2)CC[C@H]1C(=O)N(C)Cc1cc(C(F)(F)F)cc(C(F)(F)F)c1 (relative stereo)
10,166 to 167 °C,O=C(NCCO)c1cccc(-c2cccc3nn(Cc4ccccc4)cc23)c1
11,141 to 148 °C,O=C(CN1CCOCC1)Nc1ccc2c(c1)Cc1cn[nH]c1-2
12,136 to 138 °C,CN1C(=O)c2ccc(NCC(O)CCl)cc2C1=O (stereo not drawn)
13,190 to 191 °C,CCCc1c(/C=C/c2ccccc2C)nc2ccc(C(=O)O)cn2c1=O
14,291 to 296 °C,Cc1noc(=O)c2ccc(N)cc12
15,140 °C,O=C(O)/C=C/c1cncc(OCc2ccccc2)c1
16,137 to 138 °C,CCOCn1c(Oc2ccccc2)c(C(C)C)c(=O)[nH]c1=O
17,208 to 211 °C,O=C(O)C(=Cc1cccnc1)c1ccc(Cl)cc1Cl
18,178 to 180 °C,O=c1[nH]c2ccccc2n1CCCN1CCN(c2n[nH]c3ccccc23)CC1
19,92 to 94 °C,NS(=O)(=O)c1cc(C(=O)O)cc(SCc2ccsc2)c1-c1ccccc1
20,135 °C,NC(=O)CN(c1ccc(Cl)cc1C(O)c1ccccc1Cl)S(=O)(=O)c1ccc(Cl)c(Cl)c1 (stereo not drawn)
